Test systems include UACC-62; LOX IMVI; EKVX; Malme-3M; RXF 393; BT-549; HT-29; RPMI-8226; HOP-92; NCI-H226; OVCAR-4; HOP-62; OVCAR-3; SK-MEL-5; SR; MDA-MB-435; UO-31; SW-620; NCI-H522.
What all share (assay): growth of human tumour cells (NCI), 48 h

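Step 1: Grow cells in 96-well plates. Step 2: Expose to compound for 48 hours at 5 concentrations. Step 3: Interpolate endpoints linearly; if unreached, use highest concentration. At the GI50, growth is halved.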 Active and inactive are the calls of the source. Rule as the data show it: active = GI50 up to about 1.1 µM and inactive = higher.

As to `COc1ccc(OC)c(CCc2cc(OC)ccc2OC)c1`, the GI50 was 2.63 µM (inactive) with UACC-62; 0.676 µM (active) in the experiment on LOX IMVI; 7.53 µM (inactive) in the experiment on EKVX; 0.369 µM (active) in the experiment on Malme-3M; 2.58 µM (inactive) with RXF 393; > 5.4 µM (inactive) in the experiment on BT-549. For the same molecule, the GI50 in the experiment on HT-29 is 1.06 µM (active); in the experiment on RPMI-8226, 2.82 µM (inactive); with HOP-92, > 10 µM (inactive); with NCI-H226, 5.33 µM (inactive); with OVCAR-4, > 10 µM (inactive); with HOP-62, 3.73 µM (inactive). For the same molecule, the GI50 with OVCAR-3 is 0.431 µM (active); in the experiment with SK-MEL-5, 0.324 µM (active); in the experiment on SR it was 0.379 µM (active); in the experiment with MDA-MB-435, 0.174 µM (active); with UO-31, 5.55 µM (inactive); in the experiment on SW-620, 0.935 µM (active). Further, the GI50 in the experiment on NCI-H522 was 1.39 µM (inactive).
On to `N#Cc1cccc(C2ON=C(c3ccc([N+](=O)[O-])cc3)N2C23CC4CC(CC(C4)C2)C3)c1` (stereo not drawn), for which the GI50 is > 100 µM (inactive) with UACC-62; 74.1 µM (inactive) in the experiment with LOX IMVI; > 100 µM (inactive) in the experiment on EKVX; 59.7 µM (inactive) with Malme-3M; 13.1 µM (inactive) in the experiment on RXF 393; 82.6 µM (inactive) with BT-549. Further, the GI50 in the experiment on HT-29 is > 100 µM (inactive); with RPMI-8226, > 100 µM (inactive); in the experiment on HOP-92, 69.2 µM (inactive); in the experiment on NCI-H226, > 100 µM (inactive); with OVCAR-4, 26.9 µM (inactive); in the experiment on HOP-62, > 100 µM (inactive). Besides, the GI50 is 39.3 µM (inactive) with OVCAR-3; 43.6 µM (inactive) in the experiment with SK-MEL-5; 7.71 µM (inactive) with SR; > 100 µM (inactive) in the experiment on MDA-MB-435; 24.1 µM (inactive) with UO-31; > 100 µM (inactive) in the experiment with SW-620. Also, in the experiment with NCI-H522, the GI50 is 24.3 µM (inactive).
For `COc1ccc2c3c([nH]c2c1)[C@H]1C[C@H]2[C@H](C[C@@H](O)[C@H](OC)[C@H]2C(=O)O)CN1CC3`, the GI50 with UACC-62, with LOX IMVI, in the experiment on EKVX, with Malme-3M, in the experiment with RXF 393 and in the experiment with BT-549 was > 100 µM (inactive) each time. In addition, the GI50 in the experiment on HT-29, in the experiment on RPMI-8226, in the experiment with HOP-92, in the experiment with NCI-H226, in the experiment on OVCAR-4 and with HOP-62 was > 100 µM (inactive) each time. Besides, the GI50 with OVCAR-3, in the experiment with SK-MEL-5, in the experiment on SR, with MDA-MB-435, with UO-31 and in the experiment with SW-620 was > 100 µM (inactive) in each case. The GI50 in the experiment with NCI-H522 was > 100 µM (inactive).
Regarding `CSc1c(C(=O)Nc2ccc(C)cc2)c(N)nn1-c1ccccc1`, the GI50 in the experiment on UACC-62 was 95.9 µM (inactive); with LOX IMVI, > 100 µM (inactive); in the experiment with EKVX it was 49.4 µM (inactive); with Malme-3M, 19.9 µM (inactive); in the experiment on RXF 393, 26.4 µM (inactive); in the experiment with BT-549, 43.2 µM (inactive). Moreover, the GI50 is > 100 µM (inactive) in the experiment on HT-29; > 100 µM (inactive) in the experiment on RPMI-8226; 23.6 µM (inactive) in the experiment with HOP-92; > 100 µM (inactive) with NCI-H226; 13 µM (inactive) with OVCAR-4; 57.7 µM (inactive) in the experiment on HOP-62. Moreover, the GI50 is > 100 µM (inactive) in the experiment on OVCAR-3; > 100 µM (inactive) in the experiment with SK-MEL-5; 9.89 µM (inactive) in the experiment on SR; > 100 µM (inactive) in the experiment with MDA-MB-435; > 100 µM (inactive) in the experiment with UO-31; > 100 µM (inactive) with SW-620. In the experiment on NCI-H522, the GI50 is 71.4 µM (inactive).
Regarding `CC(C)c1c(O)ccc2c1CCC1C(C)(C)CCCC21C` (stereo not drawn), the GI50 is 15.2 µM (inactive) in the experiment with UACC-62; 17.1 µM (inactive) with LOX IMVI; 17.3 µM (inactive) with EKVX; 18.6 µM (inactive) with Malme-3M; 15.1 µM (inactive) in the experiment with RXF 393; 18.5 µM (inactive) in the experiment with BT-549. In addition, the GI50 in the experiment with HT-29 is 16.9 µM (inactive); in the experiment on RPMI-8226 it was 22.9 µM (inactive); with HOP-92, 18.6 µM (inactive); with NCI-H226, 17.7 µM (inactive); in the experiment with OVCAR-4 it was 17.5 µM (inactive); with OVCAR-3 it was 18.6 µM (inactive). Besides, the GI50 in the experiment with SK-MEL-5 was 16.3 µM (inactive); in the experiment on SR, 19.5 µM (inactive); in the experiment on MDA-MB-435, 18.6 µM (inactive); in the experiment with UO-31, 17.4 µM (inactive); with SW-620 it was 20 µM (inactive); with NCI-H522 it was 16.9 µM (inactive).
For the molecule `O=S(=O)(SC1=NCCN1)c1cccc2ccccc12`, the GI50 is 34.4 µM (inactive) with UACC-62; 43.8 µM (inactive) in the experiment with LOX IMVI; 30.1 µM (inactive) with EKVX; 32 µM (inactive) with Malme-3M; 23.9 µM (inactive) in the experiment with RXF 393; 22.9 µM (inactive) in the experiment with BT-549. Moreover, the GI50 was 28.7 µM (inactive) in the experiment with HT-29; 19.1 µM (inactive) with RPMI-8226; 36.8 µM (inactive) in the experiment with HOP-92; 21.6 µM (inactive) in the experiment with NCI-H226; 26.2 µM (inactive) with OVCAR-4; 31.3 µM (inactive) in the experiment on HOP-62. The GI50 with OVCAR-3 was 44 µM (inactive); in the experiment on SK-MEL-5 it was 19.1 µM (inactive); in the experiment with SR, > 10 µM (inactive); with MDA-MB-435, 29.6 µM (inactive); with UO-31, 35.9 µM (inactive); with SW-620, 32.7 µM (inactive). In addition, the GI50 in the experiment with NCI-H522 is 14.4 µM (inactive).
For `O=C1c2scnc2-c2nccc3c2c1nc1ccccc13` [KUANONIAMINE A], the GI50 with UACC-62 was 0.38 µM (active); in the experiment with LOX IMVI it was 0.172 µM (active); in the experiment on EKVX it was 2.92 µM (inactive); in the experiment on Malme-3M, 0.684 µM (active); with RXF 393, 1.77 µM (inactive); with BT-549 it was 1.25 µM (inactive). Also, the GI50 is 2.55 µM (inactive) in the experiment on HT-29; 1.37 µM (inactive) in the experiment with RPMI-8226; 1.88 µM (inactive) in the experiment on HOP-92; 1.44 µM (inactive) with NCI-H226; 1.16 µM (inactive) in the experiment on OVCAR-4; 1.04 µM (active) in the experiment with HOP-62. Also, the GI50 with OVCAR-3 was < 0.0134 µM (active); in the experiment on SK-MEL-5 it was 0.0412 µM (active); in the experiment on SR it was 0.137 µM (active); with MDA-MB-435 it was 0.191 µM (active); with UO-31, 1.16 µM (inactive); in the experiment with SW-620, 0.288 µM (active). The GI50 in the experiment with NCI-H522 was 0.0169 µM (active).
Turning to `COc1ccc2c(c1)CC[C@@H]1[C@@H]2CC[C@]2(C)/C(=N/OCCN3CCCCC3)CC[C@@H]12`, the GI50 with UACC-62 was 2.06 µM (inactive); in the experiment with LOX IMVI, 1.66 µM (inactive); with EKVX, 8.32 µM (inactive); in the experiment with Malme-3M, 2.25 µM (inactive); in the experiment with RXF 393 it was 2.81 µM (inactive); with BT-549, 12.8 µM (inactive). In addition, the GI50 with HT-29 is 1.66 µM (inactive); in the experiment on RPMI-8226 it was 2.62 µM (inactive); in the experiment with HOP-92, 3.44 µM (inactive); in the experiment on NCI-H226, 5.43 µM (inactive); in the experiment on OVCAR-4, 12.2 µM (inactive); with HOP-62, 6.25 µM (inactive). For the same molecule, the GI50 in the experiment with OVCAR-3 is 3.69 µM (inactive); in the experiment on SK-MEL-5, 2.65 µM (inactive); in the experiment with SR, 2.44 µM (inactive); in the experiment with MDA-MB-435, 4.56 µM (inactive); with UO-31 it was 3.19 µM (inactive); with SW-620 it was 5.11 µM (inactive). Besides, the GI50 in the experiment on NCI-H522 is 5.27 µM (inactive).
On to `CC(C)(C)c1ccc2c(c1)OCc1n[nH]c(n1)COc1cc(C(C)(C)C)ccc1OCCOCCO2`, for which the GI50 in the experiment on UACC-62 was 2.88 µM (inactive); in the experiment with EKVX it was 4.3 µM (inactive); in the experiment on Malme-3M, 2.07 µM (inactive); in the experiment with RXF 393, 1.62 µM (inactive); in the experiment with BT-549, 2.81 µM (inactive); with HT-29, 3.01 µM (inactive). The GI50 was 2.99 µM (inactive) in the experiment with RPMI-8226; 3.88 µM (inactive) in the experiment on HOP-92; 2.71 µM (inactive) in the experiment with NCI-H226; 0.248 µM (active) in the experiment on OVCAR-4; 5.62 µM (inactive) in the experiment with HOP-62; 2.53 µM (inactive) in the experiment with OVCAR-3. Further, the GI50 in the experiment with SK-MEL-5 is 2.38 µM (inactive); in the experiment on SR, 3.09 µM (inactive); with MDA-MB-435, 3.21 µM (inactive); in the experiment with UO-31, 3.67 µM (inactive); in the experiment with SW-620, 3.16 µM (inactive); in the experiment with NCI-H522 it was 2.4 µM (inactive).
As to `COc1ccc(/C(CC2OC(=O)c3ccccc32)=N\NC(=O)C[N+](C)(C)C)cc1` (stereo not drawn), the GI50 with UACC-62 was 15.4 µM (inactive); in the experiment with LOX IMVI, 24.1 µM (inactive); in the experiment on EKVX, 39.4 µM (inactive); in the experiment with Malme-3M it was 31.1 µM (inactive); in the experiment with RXF 393 it was 25.4 µM (inactive); in the experiment on BT-549 it was 21.5 µM (inactive). Besides, the GI50 in the experiment on HT-29 is 19.2 µM (inactive); in the experiment with RPMI-8226 it was 15.2 µM (inactive); in the experiment with HOP-92, 23.1 µM (inactive); in the experiment with NCI-H226, 21.7 µM (inactive); in the experiment on OVCAR-4, 22.6 µM (inactive); in the experiment on HOP-62, 19.2 µM (inactive). Also, the GI50 with OVCAR-3 is 30.3 µM (inactive); with SK-MEL-5, 22.5 µM (inactive); in the experiment on SR, 18.2 µM (inactive); in the experiment with MDA-MB-435, 24.3 µM (inactive); with UO-31 it was 26.5 µM (inactive); in the experiment on SW-620 it was 25.5 µM (inactive). For the same molecule, in the experiment with NCI-H522, the GI50 was 24.7 µM (inactive).

(Values after ChEMBL document CHEMBL1201862, “PubChem BioAssay data set” (2004).)
